Laboratory results from PubChem BioAssay AID1919007 (Molecular Pharmacology Branch, DTP, NCI, 2023).

Tested on: A498 complex spheroids with HUVEC/MSC, growth
Experiment: Anticancer human tumor A498 cell line growth inhibition [AhR];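 also: seven day exposure starting three days after spheroid seeding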;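 as to viability, T/C: luminescence signal used as a surrogate for viable cells; luminescence viability scaled so 100% equals DMSO vehicle wells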
Conditions: for IC50: curve of first compound; for viability, T/C: stronger effect = lower value
Procedure, shortened: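 Complex tumor spheroids co-cultured with HUVEC and human MSC stroma; AhR antagonists tested in combination with standard-of-care and investigational agents. Top concentration at or near clinical Cmax (else 10 microM), half-log dilutions; growth expressed as percent test/control.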

[1] = second compound 0.1 µM, first compound 0.00316 µM
[2] = second compound 0.1 µM, first compound 0.01 µM
[3] = second compound 0.1 µM, first compound 0.0316 µM
[4] = second compound 0.1 µM, first compound 0.1 µM
[5] = second compound 0.316 µM, first compound 0.00316 µM
[6] = second compound 0.316 µM, first compound 0.01 µM
[7] = second compound 0.316 µM, first compound 0.0316 µM
[8] = second compound 0.316 µM, first compound 0.1 µM
[9] = second compound 1 µM, first compound 0.00316 µM
[10] = second compound 1 µM, first compound 0.01 µM
[11] = second compound 1 µM, first compound 0.0316 µM
[12] = second compound 1 µM, first compound 0.1 µM
[13] = second compound 3.16 µM, first compound 0.00316 µM
[14] = second compound 3.16 µM, first compound 0.01 µM
[15] = second compound 3.16 µM, first compound 0.0316 µM
[16] = second compound 3.16 µM, first compound 0.1 µM
[17] = second compound 10 µM, first compound 0.00316 µM
[18] = second compound 10 µM, first compound 0.01 µM
[19] = second compound 10 µM, first compound 0.0316 µM
[20] = second compound 10 µM, first compound 0.1 µM
[21] = second compound 0.1 µM, first compound 0.316 µM
[22] = second compound 0.1 µM, first compound 1 µM
[23] = second compound 0.1 µM, first compound 3.16 µM
[24] = second compound 0.1 µM, first compound 10 µM
[25] = second compound 0.316 µM, first compound 0.316 µM
[26] = second compound 0.316 µM, first compound 1 µM
[27] = second compound 0.316 µM, first compound 3.16 µM
[28] = second compound 0.316 µM, first compound 10 µM
[29] = second compound 1 µM, first compound 0.316 µM
[30] = second compound 1 µM, first compound 1 µM
[31] = second compound 1 µM, first compound 3.16 µM
[32] = second compound 1 µM, first compound 10 µM
[33] = second compound 3.16 µM, first compound 0.316 µM
[34] = second compound 3.16 µM, first compound 1 µM
[35] = second compound 3.16 µM, first compound 3.16 µM
[36] = second compound 3.16 µM, first compound 10 µM
[37] = second compound 10 µM, first compound 0.316 µM
[38] = second compound 10 µM, first compound 1 µM
[39] = second compound 10 µM, first compound 3.16 µM
[40] = second compound 10 µM, first compound 10 µM

| SMILES | IC50 (second compound 0.1 µM) [nM] | IC50 (second compound 0.316 µM) [nM] | IC50 (second compound 1 µM) [nM] | IC50 (second compound 3.16 µM) [nM] | IC50 (second compound 10 µM) [nM] | viability, T/C [3] [%] | viability, T/C [4] [%] | viability, T/C [7] [%] | viability, T/C [8] [%] | viability, T/C [11] [%] | viability, T/C [12] [%] | viability, T/C [15] [%] | viability, T/C [16] [%] | viability, T/C [19] [%] | viability, T/C [20] [%] | viability, T/C [21] [%] | viability, T/C [22] [%] | viability, T/C [25] [%] | viability, T/C [26] [%] | viability, T/C [29] [%] | further results |
| --- | --- | --- | --- | --- | --- | --- | --- | --- | --- | --- | --- | --- | --- | --- | --- | --- | --- | --- | --- | --- | --- |
| CC[C@@]1(O)C(=O)OCc2c1cc1n(c2=O)Cc2cc3c(CN(C)C)c(O)ccc3nc2-1 + Cc1cncc(-c2nc(NCCc3c[nH]c4ccccc34)c3ncn(C(C)C)c3n2)c1 | > 100 | > 100 | > 100 | > 100 | < 0.316 | 72.9 | 69.8 | 83.3 | 72.9 | 77 | 66.6 | 56.5 | 53.1 | 6.79 | 8.73 | – | – | – | – | – | viability, T/C (second compound 0.1 µM, first compound 0.000316 µM): 87.4%; viability, T/C (second compound 0.1 µM, first compound 0.001 µM): 92.5%; viability, T/C [1]: 90.1%; viability, T/C [2]: 84.7%; viability, T/C (second compound 0.316 µM, first compound 0.000316 µM): 88.7%; viability, T/C (second compound 0.316 µM, first compound 0.001 µM): 92.2%; viability, T/C [5]: 91.1%; viability, T/C [6]: 83.1%; viability, T/C (second compound 1 µM, first compound 0.000316 µM): 89.2%; viability, T/C (second compound 1 µM, first compound 0.001 µM): 92.5%; viability, T/C [9]: 98.3%; viability, T/C [10]: 76.5%; viability, T/C (second compound 3.16 µM, first compound 0.000316 µM): 61.4%; viability, T/C (second compound 3.16 µM, first compound 0.001 µM): 72.9%; viability, T/C [13]: 65.8%; viability, T/C [14]: 60.5%; viability, T/C (second compound 10 µM, first compound 0.000316 µM): 4.54%; viability, T/C (second compound 10 µM, first compound 0.001 µM): 6%; viability, T/C [17]: 7.18%; viability, T/C [18]: 5.32% |
| COc1cc(C2c3cc4c(cc3C(OC3OC5COC(C)OC5C(O)C3O)C3COC(=O)C23)OCO4)cc(OC)c1O (stereo not given) + Cc1cncc(-c2nc(NCCc3c[nH]c4ccccc34)c3ncn(C(C)C)c3n2)c1 | > 10000 | > 10000 | > 10000 | 3640 | < 31.6 | 79.4 | 73 | 83.7 | 76.6 | 79.8 | 74 | 61.4 | 63.6 | 3.97 | 4.03 | 73.3 | 68.1 | 79.9 | 69 | 74.4 | viability, T/C [23]: 62.4%; viability, T/C [24]: 52.2%; viability, T/C [27]: 59.9%; viability, T/C [28]: 59%; viability, T/C [30]: 60.5%; viability, T/C [31]: 56.3%; viability, T/C [32]: 50.1%; viability, T/C [33]: 66.9%; viability, T/C [34]: 56.8%; viability, T/C [35]: 47.1%; viability, T/C [36]: 43.2%; viability, T/C [37]: 4.95%; viability, T/C [38]: 4.99%; viability, T/C [39]: 5.98%; viability, T/C [40]: 6.6% |
| COc1cccc2c1C(=O)c1c(O)c3c(c(O)c1C2=O)CC(O)(C(=O)CO)CC3OC1CC(N)C(O)C(C)O1 (stereo not given) + Cc1cncc(-c2nc(NCCc3c[nH]c4ccccc34)c3ncn(C(C)C)c3n2)c1 | 266 | 380 | 175 | < 31.6 | < 31.6 | 64.7 | 57.1 | 61.1 | 65.6 | 58.6 | 55.9 | 48.8 | 50.7 | 5.86 | 6.1 | 48.8 | 20.3 | 56.3 | 15.4 | 43.1 | viability, T/C [23]: 1.26%; viability, T/C [24]: 0.76%; viability, T/C [27]: 1.1%; viability, T/C [28]: 0.72%; viability, T/C [30]: 10.3%; viability, T/C [31]: 1.14%; viability, T/C [32]: 0.7%; viability, T/C [33]: 37.7%; viability, T/C [34]: 2.21%; viability, T/C [35]: 1.26%; viability, T/C [36]: 0.84%; viability, T/C [37]: 9.17%; viability, T/C [38]: 0.29%; viability, T/C [39]: 0.94%; viability, T/C [40]: 0.55% |
| Nc1ncn(C2CC(O)C(CO)O2)c(=O)n1 (stereo not given) + Cc1cncc(-c2nc(NCCc3c[nH]c4ccccc34)c3ncn(C(C)C)c3n2)c1 | > 1000 | > 1000 | > 1000 | > 1000 | < 3.16 | 88.5 | 85.4 | 92.5 | 88.5 | 85 | 79.8 | 71.1 | 60.6 | 6.07 | 3.94 | 75 | 70.1 | 83.2 | 81.9 | 81 | viability, T/C [1]: 83.2%; viability, T/C [2]: 93.2%; viability, T/C [5]: 90.3%; viability, T/C [6]: 94.5%; viability, T/C [9]: 85.4%; viability, T/C [10]: 86.4%; viability, T/C [30]: 76%; viability, T/C [13]: 61.5%; viability, T/C [14]: 65.8%; viability, T/C [33]: 62.8%; viability, T/C [34]: 63.4%; viability, T/C [17]: 4.02%; viability, T/C [18]: 3.97%; viability, T/C [37]: 4.34%; viability, T/C [38]: 4.63% |
